These results are taken from patent US10336707B2, “Heterocyclic derivatives modulating activity of certain protein kinases” (EUDENDRON S.R.L., priority 2014, dated 2019).

Like-named read-outs stand apart in the source and are kept apart here.

The target of assay [1] is T1, ALK F1174L (GST-His-tag) (Homo sapiens, UniProt Q9UM73, F1174L).
T1 construct: either as full-length or enzymatically active fragments; purchased ProQinase GmbH (Freiburg, Germany)
Nature of the assay: Radiometric protein kinase assay (33PanQuinase Activity Assay), ALK F1174L. It counts as biochemical. As to conditions: ATP 0.3 μM. Here is the method: (§1) A proprietary radiometric protein kinase assay (33PanQuinase® Activity Assay) developed by ProQuinase GmbH (Freiburg, Germany) was used for measuring the kinase activity of selected protein kinases. All assays were performed in FlashPlates™ wells 96 Perkin Elmer (Boston, Mass., USA) in a reaction volume of 50 μl. The reaction mixture was obtained in 4 steps in the following order: • 1. 10 μl of a solution of non-radioactive ATP in water; • 2. 25 μl of assay buffer/[γ-^33P]-ATP mixture • 3. 5 μl of test sample in 10% DMSO • 4. 10 μl of enzyme/substrate mixture
(§2) All protein kinases provided by ProQinase were expressed in Sf9 insect cells or in E. coli as recombinant GST-fusion proteins or His-tagged proteins, either as full-length or enzymatically active fragments. […] Kinases from external vendors (CAR=Carna Biosciences Inc.; INV=Life Technologies (Invitrogen Corporation); MIL=Merck-Millipore (Millipore Corporation), were expressed, purified and quality-controlled by virtue of the vendors readings.
(§3) A stock solution of compound of formula (I) was diluted to 5×10-04M/100% DMSO. […] Incorporation of 33Pi (counting of “cpm”) was determined with a microplate scintillation counter (Microbeta, Wallac). […]
(§4) Based on each 10 corresponding residual activities, IC50 values were calculated using Prism 5.04 for Windows (Graphpad, San Diego, Calif.). […]

Assay [2] has as its system NPM/ALK positive SUPM2. Nature of the assay: Tritiated thymidine uptake cell proliferation assay, SUPM2. It counts as cell-based. The note with it: SUP-M2; cell line SUPM2; read-out: IC50 of cellular proliferation, SUPM2. As to the method: Method: Tritiated Thymidine Uptake Cell Proliferation Assay
The following procedure was used with parent untransformed BaF3 cells, BaF3 cells transformed with the oncogenic fusion protein NPM/ALK, NPM/ALK positive SUDHL-1 cells, NPM/ALK positive SUPM2, ALK-negative HL60 cells, NPM/ALK positive KARPAS-299 cells. The parent untransformed BaF3 cells or Alk-negative HL60 cells are used as controls. Cells were seeded in U-bottomed 96-well plates at 10000 cells/well in a volume of 100 μl in supplemented medium. In the case of the parent untransformed BaF3 cells, the medium was supplemented with IL-3. Serial dilutions of inhibitors were added to the appropriate wells and volumes adjusted to 200 μl. Controls were treated with the equivalent volume of vehicle, DMSO, alone. Plates were incubated at 37° C. for 72 h. 3[H]-thymidine (1 μCi/well) was added for the last 16 h of incubation. Cells were harvested on to paper filters and 3[H]-thymidine incorporation was measured using a scintillation counter (1430 MicroBeta, Wallac, Turku, Finland). The 50% inhibitory concentration (IC50) was defined as the concentration of inhibitor, expressed in nanomolar units, that gave a 50% decrease in 3[H]-thymidine uptake compared with controls.
In Table 4 are reported the IC50 of cellular proliferation assays of example 3 versus ALK positive, mutated and negative cell lines.

For assay [3], the target named is T2, ALKL1196M (GST-His-tag) (Homo sapiens, UniProt Q9UM73, L1196M).
T2 construct: either as full-length or enzymatically active fragments; purchased ProQinase GmbH (Freiburg, Germany)
Put plainly: Radiometric protein kinase assay (33PanQuinase Activity Assay), ALK L1196M. It counts as biochemical. The note with it: ATP 0.3 μM. Here is the method:
as §1, §2, §3, §4

In assay [4] the target is T3, BaF3 cell line transfected with the oncogenic fusion protein NPM-ALK and expressing the mutation L1196M (Homo sapiens, UniProt Q9UM73, L1196M, cells depend on it).
T3 construct: fused on or other part: P06748 (Nucleophosmin)
Put plainly: Tritiated thymidine uptake cell proliferation assay, BaF3 NPM-ALK L1196M. It counts as cell-based, murine.

Assay [5] addresses T4, RET V804M (Homo sapiens, UniProt P07949, V804M).
T4 construct: either as full-length or enzymatically active fragments; purchased ProQinase GmbH (Freiburg, Germany)
Nature of the assay: Radiometric protein kinase assay (33PanQuinase Activity Assay), RET V804M. It counts as biochemical. The note with it: ATP 0.3 μM. As to the method:
as §1, §2, §3, §4

T3 sequence (Q9UM73 whole entry L1196M, the tested form may be a part): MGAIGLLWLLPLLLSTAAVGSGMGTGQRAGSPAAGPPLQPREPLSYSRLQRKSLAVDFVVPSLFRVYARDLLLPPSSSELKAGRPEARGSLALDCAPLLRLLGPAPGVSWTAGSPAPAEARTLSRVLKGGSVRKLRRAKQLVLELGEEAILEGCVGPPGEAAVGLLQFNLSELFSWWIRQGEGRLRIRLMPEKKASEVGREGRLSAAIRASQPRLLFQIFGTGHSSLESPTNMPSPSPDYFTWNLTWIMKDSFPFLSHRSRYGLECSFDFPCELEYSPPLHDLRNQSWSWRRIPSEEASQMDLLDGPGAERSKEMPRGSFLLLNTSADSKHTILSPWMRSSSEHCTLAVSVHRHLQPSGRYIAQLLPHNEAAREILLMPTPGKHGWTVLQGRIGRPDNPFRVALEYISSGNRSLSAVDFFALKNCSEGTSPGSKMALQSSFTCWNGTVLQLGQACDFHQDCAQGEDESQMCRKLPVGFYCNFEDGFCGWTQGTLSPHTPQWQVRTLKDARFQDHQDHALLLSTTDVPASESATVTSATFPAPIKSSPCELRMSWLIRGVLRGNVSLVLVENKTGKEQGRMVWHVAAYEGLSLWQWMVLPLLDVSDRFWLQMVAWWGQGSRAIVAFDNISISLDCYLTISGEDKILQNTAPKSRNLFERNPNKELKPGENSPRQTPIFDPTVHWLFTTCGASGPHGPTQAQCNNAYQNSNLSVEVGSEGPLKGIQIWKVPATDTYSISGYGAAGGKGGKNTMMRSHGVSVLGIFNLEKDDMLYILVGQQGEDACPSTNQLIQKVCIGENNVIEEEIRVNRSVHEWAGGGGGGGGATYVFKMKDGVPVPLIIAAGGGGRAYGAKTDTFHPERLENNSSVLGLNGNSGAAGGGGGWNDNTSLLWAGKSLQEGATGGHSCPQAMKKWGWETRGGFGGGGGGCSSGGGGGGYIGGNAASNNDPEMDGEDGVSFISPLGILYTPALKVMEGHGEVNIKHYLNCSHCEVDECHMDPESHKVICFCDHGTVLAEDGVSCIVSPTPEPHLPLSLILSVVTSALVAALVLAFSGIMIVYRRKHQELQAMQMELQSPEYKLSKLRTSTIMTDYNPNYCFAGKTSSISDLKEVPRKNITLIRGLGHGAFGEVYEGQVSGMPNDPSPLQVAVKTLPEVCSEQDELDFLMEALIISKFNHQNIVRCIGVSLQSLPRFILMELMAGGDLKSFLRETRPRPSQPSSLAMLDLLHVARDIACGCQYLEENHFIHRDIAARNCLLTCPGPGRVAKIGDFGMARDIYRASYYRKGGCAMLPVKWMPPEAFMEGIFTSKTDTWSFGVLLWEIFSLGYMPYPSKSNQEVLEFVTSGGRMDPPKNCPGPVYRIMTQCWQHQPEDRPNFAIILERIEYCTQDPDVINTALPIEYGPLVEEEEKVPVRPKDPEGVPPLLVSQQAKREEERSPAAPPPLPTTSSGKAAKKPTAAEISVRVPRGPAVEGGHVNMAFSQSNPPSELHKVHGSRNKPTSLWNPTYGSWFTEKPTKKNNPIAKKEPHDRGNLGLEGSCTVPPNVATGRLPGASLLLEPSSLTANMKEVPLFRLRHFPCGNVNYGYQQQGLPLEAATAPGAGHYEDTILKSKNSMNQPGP
T4 sequence (P07949 29-1114 V804M): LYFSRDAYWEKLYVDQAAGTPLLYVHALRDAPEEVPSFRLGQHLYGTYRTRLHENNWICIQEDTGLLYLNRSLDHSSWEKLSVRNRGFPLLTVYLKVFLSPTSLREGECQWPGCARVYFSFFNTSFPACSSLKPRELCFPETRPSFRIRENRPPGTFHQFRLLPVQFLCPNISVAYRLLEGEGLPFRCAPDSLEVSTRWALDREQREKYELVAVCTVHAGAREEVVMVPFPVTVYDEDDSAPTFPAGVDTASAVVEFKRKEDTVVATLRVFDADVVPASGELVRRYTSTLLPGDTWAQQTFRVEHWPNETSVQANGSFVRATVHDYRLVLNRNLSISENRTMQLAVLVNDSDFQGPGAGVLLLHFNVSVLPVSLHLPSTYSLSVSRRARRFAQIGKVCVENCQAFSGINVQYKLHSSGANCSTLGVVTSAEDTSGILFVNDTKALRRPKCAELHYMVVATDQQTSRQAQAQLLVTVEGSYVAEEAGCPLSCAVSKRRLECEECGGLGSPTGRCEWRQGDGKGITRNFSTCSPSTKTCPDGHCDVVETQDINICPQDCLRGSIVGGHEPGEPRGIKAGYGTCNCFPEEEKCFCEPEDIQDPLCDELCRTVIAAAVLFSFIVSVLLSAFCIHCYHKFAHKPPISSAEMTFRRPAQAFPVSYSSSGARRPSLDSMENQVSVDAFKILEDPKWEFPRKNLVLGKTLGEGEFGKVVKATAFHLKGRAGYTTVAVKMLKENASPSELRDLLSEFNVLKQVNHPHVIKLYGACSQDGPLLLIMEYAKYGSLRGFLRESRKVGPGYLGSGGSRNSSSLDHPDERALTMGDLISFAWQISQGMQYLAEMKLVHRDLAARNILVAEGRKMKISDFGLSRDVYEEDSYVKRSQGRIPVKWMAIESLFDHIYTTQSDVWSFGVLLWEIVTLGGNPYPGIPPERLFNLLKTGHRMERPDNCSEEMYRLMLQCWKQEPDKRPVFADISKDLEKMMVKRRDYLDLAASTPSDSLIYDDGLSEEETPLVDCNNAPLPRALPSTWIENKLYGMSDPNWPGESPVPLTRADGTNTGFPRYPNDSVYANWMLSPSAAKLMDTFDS
T1 sequence (Q9UM73 19-1620 F1174L): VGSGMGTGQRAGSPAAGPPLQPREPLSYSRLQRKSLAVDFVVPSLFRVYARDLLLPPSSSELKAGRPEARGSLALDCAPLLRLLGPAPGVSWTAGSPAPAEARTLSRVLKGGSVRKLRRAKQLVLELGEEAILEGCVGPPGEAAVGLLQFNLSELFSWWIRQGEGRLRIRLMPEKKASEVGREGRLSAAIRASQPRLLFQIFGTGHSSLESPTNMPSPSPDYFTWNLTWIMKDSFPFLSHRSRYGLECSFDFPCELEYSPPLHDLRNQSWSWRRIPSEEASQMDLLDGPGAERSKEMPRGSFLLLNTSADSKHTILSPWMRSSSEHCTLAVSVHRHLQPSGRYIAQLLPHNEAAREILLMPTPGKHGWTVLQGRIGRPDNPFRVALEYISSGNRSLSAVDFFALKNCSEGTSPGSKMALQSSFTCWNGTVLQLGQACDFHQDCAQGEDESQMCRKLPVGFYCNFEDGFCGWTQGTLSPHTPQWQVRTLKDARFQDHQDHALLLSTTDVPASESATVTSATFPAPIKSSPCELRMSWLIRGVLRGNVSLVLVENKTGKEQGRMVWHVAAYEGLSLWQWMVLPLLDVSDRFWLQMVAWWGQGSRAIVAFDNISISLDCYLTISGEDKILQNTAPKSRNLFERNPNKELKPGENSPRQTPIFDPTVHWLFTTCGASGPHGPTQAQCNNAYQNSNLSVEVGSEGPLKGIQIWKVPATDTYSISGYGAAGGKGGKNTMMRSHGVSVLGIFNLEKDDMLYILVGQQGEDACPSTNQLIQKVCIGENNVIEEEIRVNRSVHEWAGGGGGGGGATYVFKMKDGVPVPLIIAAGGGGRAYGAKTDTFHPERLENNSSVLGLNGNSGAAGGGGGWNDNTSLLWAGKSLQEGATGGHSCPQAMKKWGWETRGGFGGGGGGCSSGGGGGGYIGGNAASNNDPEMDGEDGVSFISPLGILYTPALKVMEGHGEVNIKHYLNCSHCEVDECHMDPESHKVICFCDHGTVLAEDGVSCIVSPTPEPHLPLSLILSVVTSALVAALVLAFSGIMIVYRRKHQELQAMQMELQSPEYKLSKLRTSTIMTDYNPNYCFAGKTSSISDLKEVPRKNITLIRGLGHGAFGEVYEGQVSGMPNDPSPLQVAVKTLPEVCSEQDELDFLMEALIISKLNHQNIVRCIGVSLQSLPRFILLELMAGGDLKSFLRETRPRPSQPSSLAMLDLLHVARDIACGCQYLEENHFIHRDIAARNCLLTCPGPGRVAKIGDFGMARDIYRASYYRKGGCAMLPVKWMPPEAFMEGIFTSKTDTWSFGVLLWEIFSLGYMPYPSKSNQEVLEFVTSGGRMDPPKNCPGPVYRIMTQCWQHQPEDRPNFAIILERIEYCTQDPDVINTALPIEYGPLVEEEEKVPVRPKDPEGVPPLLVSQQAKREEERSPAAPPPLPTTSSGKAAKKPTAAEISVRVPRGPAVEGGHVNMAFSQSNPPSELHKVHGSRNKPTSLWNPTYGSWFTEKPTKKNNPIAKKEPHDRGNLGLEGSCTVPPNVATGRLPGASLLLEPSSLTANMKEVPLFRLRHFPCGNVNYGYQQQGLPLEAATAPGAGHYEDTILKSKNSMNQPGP
T2 sequence (Q9UM73 19-1620 L1196M): as the sequence (Q9UM73 19-1620 F1174L) above, with L1156F, L1178M counted along it

For the compound `CN1CCN(c2ccc(C(=O)Nc3n[nH]c4cc(-c5ccc(O)cc5)c(Cc5cc(F)cc(F)c5)cc34)c(NC3CCOCC3)c2)CC1` [Example 3, N-[5-[(3,5-difluorophenyl)methyl]-6-(4-hydroxyphenyl)-1H-indazol-3-yl]-4-(4-methylpiperazin-1-yl)-2-(tetrahydropyran-4-ylamino)benzamide], the IC50 was 0.046 µM in assay [1], 0.052 µM in assay [2], 0.045 µM in assay [3] and 0.085 µM in assay [5]. Moreover, the GI50 in assay [4] (averaged IC50 values of cell proliferation inhibition, class letters, read-out: IC50 BaF3 NPM-ALK L1196M cells) is 0.001 to 0.05 µM; in assay [4] (cell line BaF3 NPM-ALK L1196M, read-out: IC50 of cellular proliferation, BaF3 NPM-ALK L1196M), 0.006 µM. In addition, in assay [4] (percentage of inhibition of cell proliferation at 200 nM), the “% Inhibition BaF3 NPM-ALK L1196M cells” value turned out to be 83%.
